Laboratory results: ChEMBL document CHEMBL1136559, “Discovery, SAR, synthesis, pharmacokinetic and biochemical characterization of A-192411: a novel fungicidal lipopeptide-(I)” (Bioorg Med Chem Lett, 2003)
Converted amounts (≈) assume the structure as drawn. Starred links: 1 amine or outer side, 2 acyl side, 3 side chain; linkers in the order of their positions; H or OH if unused. Positions of bridges follow the written chain, without caps; N, C: chain ends. Non-standard residues stand in square brackets, D forms with d. Residues, ends and D or L forms follow the SMILES beside them. *: point of attachment. pTerphenylCO(4''-OnC5H11) = CCCCCOc1ccc(-c2ccc(-c3ccc(C(=O)*)cc3)cc2)cc1; Pro(cis-4-guanidino) = NC(N)=N[C@@H]1CN[C@H](C(=O)O)C1; hTyr(3-COCH2NH2) = NCC(=O)c1cc(CC[C@H](N)C(=O)O)ccc1O; X1 = NCC(=O)Nc1cc(CC[C@H](N[*:1])C(=O)[*:2])ccc1O; X4 = NCCC(=O)c1cc(CC[C@H](N[*:1])C(=O)[*:2])ccc1O; X2 = NC(N)=N[C@H]1CC(C(=O)[*:2])N([*:1])C1; Pro(4S-NH2) = N[C@@H]1CN[C@H](C(=O)O)C1; Hyp = O=C(O)[C@@H]1C[C@@H](O)CN1; Orn = NCCC[C@H](N)C(=O)O

Experiments:
[1] = system: [Candida] zeylanoides; assay: Antifungal activity against Candida zeylanoides NRRL Y-112; type: functional
[2] = system: Kluyveromyces marxianus; assay: Antifungal activity against Candida kefyr ATCC 28838; type: functional
[3] = system: Candida albicans; assay: Antifungal activity against Candida albicans 579A; type: functional
[4] = system: Nakaseomyces glabratus; assay: Antifungal activity against Torulopsis glabrata ATCC 15545; type: functional
[5] = system: Candida albicans; assay: Antifungal activity against Candida albicans ATCC 10231; type: functional
[6] = system: Candida albicans; assay: Antifungal activity against Candida albicans CCH 442; type: functional
[7] = system: Candida albicans; assay: Antifungal activity against Candida albicans CAF-2; type: functional
[8] = system: Naganishia albida; assay: Antifungal activity against Cryptococcus albidus ATCC 34140; type: functional
[9] = system: Candida albicans; assay: Antifungal activity against Candida albicans ATCC 62376; type: functional
[10] = system: Aspergillus niger; assay: Antifungal activity against Aspergillus niger ATCC 16404; type: functional
[11] = system: Candida albicans; assay: Antifungal activity against Candida albicans ATCC 38247; type: functional
[12] = Plasma clearance for the compound was measured in mouse after an iv dose of 1 mg/kg; type: ADME, organism-based; parameters: dose 1 mg/kg, route intravenous; conditions: read-out: Clp (converted)
[13] = Terminal phase volume of distribution was measured in monkey after an iv dose of 1 mg/kg; type: ADME, organism-based; parameters: dose 1 mg/kg, route intravenous; conditions: cercopithecidae, in vivo, read-out: Va beta
[14] = Terminal phase volume of distribution was measured in mouse after an iv dose of 1 mg/kg; type: ADME, organism-based; parameters: dose 1 mg/kg, route intravenous; conditions: in vivo, read-out: Va beta
[15] = Half-life was measured in rat after an iv dose of 1 mg/kg; type: ADME, organism-based; parameters: dose 1 mg/kg, route intravenous; conditions: in vivo
[16] = Area under the curve was measured in rat after an iv dose of 1 mg/kg; type: ADME, organism-based; parameters: dose 1 mg/kg, route intravenous; conditions: in vivo
[17] = Half-life was measured in dog after an iv dose of 1 mg/kg; type: ADME, organism-based, Canis lupus familiaris; parameters: dose 1 mg/kg, route intravenous; conditions: in vivo
[18] = Area under the curve was measured in mouse after an iv dose of 1 mg/kg; type: ADME, organism-based; parameters: dose 1 mg/kg, route intravenous; conditions: in vivo
[19] = Terminal phase volume of distribution was measured in dog after an iv dose of 1 mg/kg; type: ADME, organism-based, Canis lupus familiaris; parameters: dose 1 mg/kg, route intravenous; conditions: in vivo, read-out: Va beta
[20] = Volume of distribution was measured in mouse after an iv dose of 1 mg/kg; type: ADME, organism-based; parameters: dose 1 mg/kg, route intravenous; conditions: in vivo, read-out: Vv
[21] = Half-life was measured in monkey after an iv dose of 1 mg/kg; type: ADME, organism-based; parameters: dose 1 mg/kg, route intravenous; conditions: cercopithecidae, in vivo
[22] = Plasma clearance for the compound was measured in dog after an iv dose of 1 mg/kg; type: ADME, organism-based, Canis lupus familiaris; parameters: dose 1 mg/kg, route intravenous; conditions: read-out: Clp (converted)
[23] = Plasma clearance for the compound was measured in rat after an iv dose of 1 mg/kg; type: ADME, organism-based; parameters: dose 1 mg/kg, route intravenous; conditions: read-out: Clp (converted)
[24] = Volume of distribution was measured in monkey after an iv dose of 1 mg/kg; type: ADME, organism-based; parameters: dose 1 mg/kg, route intravenous; conditions: cercopithecidae, in vivo, read-out: Vv
[25] = Area under the curve was measured in dog after an iv dose of 1 mg/kg; type: ADME, organism-based, Canis lupus familiaris; parameters: dose 1 mg/kg, route intravenous; conditions: in vivo
[26] = Volume of distribution was measured in dog after an iv dose of 1 mg/kg; type: ADME, organism-based, Canis lupus familiaris; parameters: dose 1 mg/kg, route intravenous; conditions: in vivo, read-out: Vv
[27] = Volume of distribution was measured in rat after an iv dose of 1 mg/kg; type: ADME, organism-based; parameters: dose 1 mg/kg, route intravenous; conditions: in vivo, read-out: Vv
[28] = Half-life was measured in mouse after an iv dose of 1 mg/kg; type: ADME, organism-based; parameters: dose 1 mg/kg, route intravenous; conditions: in vivo
[29] = Plasma clearance for the compound was measured in monkey after an iv dose of 1 mg/kg; type: ADME, organism-based; parameters: dose 1 mg/kg, route intravenous; conditions: cercopithecidae, read-out: Clp (converted)
[30] = Terminal phase volume of distribution was measured in rat after an iv dose of 1 mg/kg; type: ADME, organism-based; parameters: dose 1 mg/kg, route intravenous; conditions: in vivo, read-out: Va beta
[31] = Area under the curve was measured in monkey after an iv dose of 1 mg/kg; type: ADME, organism-based; parameters: dose 1 mg/kg, route intravenous; conditions: cercopithecidae, in vivo
[32] = Kluyveromyces marxianus, ATCC 28838, read-out: MIC
[33] = Candida albicans, read-out: MIC
[34] = Nakaseomyces glabratus, ATCC 15545, read-out: MIC
[35] = Naganishia albida, ATCC 34140, read-out: MIC
[36] = Candida albicans, ATCC 62376, read-out: MIC
[37] = Aspergillus niger, ATCC 16404, read-out: MIC
[38] = Dujonia zeylanoides, read-out: MIC
[39] = Candida albicans, ATCC 10231, read-out: MIC
[40] = Candida albicans, ATCC 38247, read-out: MIC

CCCCCOc1ccc(-c2ccc(-c3ccc(C(=O)N[C@H]4CCCNC(=O)[C@@H]5C[C@H](N=C(N)N)CN5C(=O)[C@H]([C@@H](C)O)NC(=O)[C@H](CCc5ccc(O)c(C(=O)CN)c5)NC(=O)[C@@H]5C[C@@H](O)CN5C(=O)[C@H]([C@@H](C)O)NC4=O)cc3)cc2)cc1 (stereo in doubt; 1)
MIC [1]: 0.39 µg/mL (≈ 0.336 µM)
MIC [2, 32]: 1.56 µg/mL (≈ 1.34 µM)
MIC [3, 33]: 0.2 µg/mL (≈ 0.172 µM)
MIC [4, 34]: 1.56 µg/mL (≈ 1.34 µM)
MIC [5]: 0.2 µg/mL (≈ 0.172 µM)
MIC [6]: 0.2 µg/mL (≈ 0.172 µM)
MIC [7, 33]: 0.2 µg/mL (≈ 0.172 µM)
MIC [8, 35]: 12.5 µg/mL (≈ 10.8 µM)
MIC [9, 36]: 0.2 µg/mL (≈ 0.172 µM)
MIC [10, 37]: 6.25 µg/mL (≈ 5.39 µM)
MIC [11]: 0.2 µg/mL (≈ 0.172 µM)

CCCCCOc1ccc(-c2ccc(-c3ccc(C(=O)N[C@H]4CCCNC(=O)[C@@H]5C[C@H](N=C(N)N)CN5C(=O)[C@H]([C@@H](C)O)NC(=O)[C@H](CCc5ccc(O)c(C(=O)CN)c5)NC(=O)[C@@H]5C[C@@H](O)CN5C(=O)[C@H]([C@@H](C)O)NC4=O)cc3)cc2)cc1 (stereo in doubt; 4)
MIC [1]: 1.56 µg/mL (≈ 1.34 µM)
MIC [2]: 0.78 µg/mL (≈ 0.672 µM)
MIC [3]: 0.39 µg/mL (≈ 0.336 µM)
MIC [4]: 1.56 µg/mL (≈ 1.34 µM)
MIC [5]: 0.78 µg/mL (≈ 0.672 µM)
MIC [6]: 0.78 µg/mL (≈ 0.672 µM)
MIC [7]: 0.39 µg/mL (≈ 0.336 µM)
MIC [8]: 6.25 µg/mL (≈ 5.39 µM)
MIC [9]: 0.39 µg/mL (≈ 0.336 µM)
MIC [10]: 6.25 µg/mL (≈ 5.39 µM)
MIC [11]: 0.78 µg/mL (≈ 0.672 µM)

CCCCCOc1ccc(-c2ccc(-c3ccc(C(=O)N[C@H]4CCCNC(=O)[C@@H]5C[C@H](N=C(N)N)CN5C(=O)[C@H]([C@@H](C)O)NC(=O)[C@H](CCc5ccc(O)c(C(=O)CN)c5)NC(=O)[C@@H]5CCCN5C(=O)[C@H]([C@@H](C)O)NC4=O)cc3)cc2)cc1 ({pTerphenylCO(4''-OnC5H11)}-[Orn]TP[hTyr(3-COCH2NH2)]T[Pro(cis-4-guanidino)]; lactam 1-C)
MIC [1, 38]: 0.39 µg/mL (≈ 0.341 µM)
MIC [2, 32]: 1.56 µg/mL (≈ 1.36 µM)
MIC [3, 33]: 0.2 µg/mL (≈ 0.175 µM)
MIC [4, 34]: 0.39 µg/mL (≈ 0.341 µM)
MIC [5, 39]: 0.39 µg/mL (≈ 0.341 µM)
MIC [6, 33]: 0.2 µg/mL (≈ 0.175 µM)
MIC [7, 33]: 0.1 µg/mL (≈ 0.0874 µM)
MIC [8, 35]: 25 µg/mL (≈ 21.8 µM)
MIC [9, 36]: 0.2 µg/mL (≈ 0.175 µM)
MIC [10, 37]: 25 µg/mL (≈ 21.8 µM)
MIC [11, 40]: 0.39 µg/mL (≈ 0.341 µM)

CCCCCOc1ccc(-c2ccc(-c3ccc(C(=O)N[C@H]4CCCNC(=O)C5C[C@H](N=C(N)N)CN5C(=O)[C@H]([C@@H](C)O)NC(=O)[C@H](CCc5ccc(O)c(NC(=O)CN)c5)NC(=O)[C@@H]5C[C@@H](O)CN5C(=O)[C@H]([C@@H](C)O)NC4=O)cc3)cc2)cc1 (stereo not given in full) ({pTerphenylCO(4''-OnC5H11)}-[Orn]T[Hyp][X1]T[X2]; lactam 1-C)
clearance [12]: 1 mL/min/kg
Vd [13]: 0.9 L/kg
Vd [14]: 1 L/kg
half-life [15]: 7.4 h
AUC [16]: 11700 ng·h/mL
half-life [17]: 30.4 h
AUC [18]: 16800 ng·h/mL
Vd [19]: 1.3 L/kg
Vd [20]: 0.4 L/kg
half-life [21]: 3.3 h
clearance [22]: 0.5 mL/min/kg
clearance [23]: 2.33 mL/min/kg
Vd [24]: 0.2 L/kg
AUC [25]: 36400 ng·h/mL
Vd [26]: 0.6 L/kg
Vd [27]: 0.6 L/kg
half-life [28]: 11.5 h
clearance [29]: 2.83 mL/min/kg
Vd [30]: 2.2 L/kg
AUC [31]: 6550 ng·h/mL

CCCCCOc1ccc(-c2ccc(-c3ccc(C(=O)N[C@H]4CCCNC(=O)[C@@H]5C[C@H](N=C(N)N)CN5C(=O)[C@H]([C@@H](C)O)NC(=O)[C@H](CCc5ccc(O)c(C(=O)CCN)c5)NC(=O)[C@@H]5C[C@@H](O)CN5C(=O)[C@H]([C@@H](C)O)NC4=O)cc3)cc2)cc1 ({pTerphenylCO(4''-OnC5H11)}-[Orn]T[Hyp][X4]T[Pro(cis-4-guanidino)]; lactam 1-C)
MIC [1, 38]: 0.39 µg/mL (≈ 0.332 µM)
MIC [2, 32]: 1.56 µg/mL (≈ 1.33 µM)
MIC [3, 33]: 0.2 µg/mL (≈ 0.17 µM)
MIC [4, 34]: 1.56 µg/mL (≈ 1.33 µM)
MIC [5, 39]: 0.39 µg/mL (≈ 0.332 µM)
MIC [6, 33]: 0.2 µg/mL (≈ 0.17 µM)
MIC [7, 33]: 0.2 µg/mL (≈ 0.17 µM)
MIC [8, 35]: 12.5 µg/mL (≈ 10.6 µM)
MIC [9, 36]: 0.2 µg/mL (≈ 0.17 µM)
MIC [10, 37]: 6.25 µg/mL (≈ 5.32 µM)
MIC [11, 40]: 0.2 µg/mL (≈ 0.17 µM)

CCCCCOc1ccc(-c2ccc(-c3ccc(C(=O)N[C@H]4CCCNC(=O)[C@@H]5C[C@H](N)CN5C(=O)[C@H]([C@@H](C)O)NC(=O)[C@H](CCc5ccc(O)c(C(=O)CN)c5)NC(=O)[C@@H]5C[C@@H](O)CN5C(=O)[C@H]([C@@H](C)O)NC4=O)cc3)cc2)cc1 ({pTerphenylCO(4''-OnC5H11)}-[Orn]T[Hyp][hTyr(3-COCH2NH2)]T[Pro(4S-NH2)]; lactam 1-C)
MIC [1, 38]: 0.1 µg/mL (≈ 0.0894 µM)
MIC [2, 32]: 0.78 µg/mL (≈ 0.697 µM)
MIC [3, 33]: 0.01 µg/mL (≈ 0.00894 µM)
MIC [4, 34]: 0.2 µg/mL (≈ 0.179 µM)
MIC [5, 39]: 0.1 µg/mL (≈ 0.0894 µM)
MIC [6, 33]: 0.01 µg/mL (≈ 0.00894 µM)
MIC [7, 33]: 0.1 µg/mL (≈ 0.0894 µM)
MIC [8, 35]: 3.2 µg/mL (≈ 2.86 µM)
MIC [9, 36]: 0.1 µg/mL (≈ 0.0894 µM)
MIC [10, 37]: 0.2 µg/mL (≈ 0.179 µM)
MIC [11, 40]: 0.2 µg/mL (≈ 0.179 µM)
